In one experiment the target is human recombinant BACE2 (Homo sapiens (Human), UniProt Q9Y5Z0). The experiment in a line: In vitro enzymatic BACE2 FRET assay. Conditions: pH 4.5, read-out: BACE2 Enzyme IC50. The class given is biochemical. As for the experimental part: (§1) In Vitro Enzymatic BACE1 and BACE2 FRET (Fluorescence Resonance Energy Transfer) Assays
(§2) The cDNAs for both human recombinant BACE1 and 2 with C-terminal 6-His Tags were cloned into transient protein expression vectors, which were subsequently transfected into mammalian cell lines. These recombinant proteins were further purified using Ni-NTA affinity chromatography (Qiagen). The assay buffer used in these screens was 0.05 M acetate, pH 4.5, 8% DMSO final, 100 μM genapol (which is a nonionic detergent, below its Critical Micelle Concentration). The β-secretase enzyme (0.02 nM for BACE1 and 0.64 nM for BACE2), which was pre-incubated for one hour with the test compound, typically in about 1 uL of DMSO according to a serial dilution, was added thereto. The assay was effectively started by the addition of FRET substrate (50 nM) and the combination was incubated for one hour. The FRET assay was terminated by the addition of tris buffer, which raised the pH to neutrality, and the fluorescence was determined. The FRET substrate was a peptide with commercially available fluorophore and quencher, on opposite sides of the BACE cleavage site. The specific FRET substrate used in this assay was made by Amgen in-house. Commercially available FRET substrates, for example, the FRET substrate offered with the BACE1 FRET Assay Kit sold by ThermoFisher Scientific (Catalog Number P2985), may be used in this assay with the appropriate modifications, which are within the purview of the ability of a person with ordinary skill in the art. Proteolytic cleavage of the FRET substrate released quenching of fluorescence (excitation 488 nm and emission 590 nm).

Another experiment concerns the target Recombinant CatD (Homo sapiens (Human), UniProt P07339). Description: In vitro enzymatic Cathepsin D (CatD) FRET assay. The class given is biochemical. Conditions: pH 3.5, read-out: CatD Enzyme IC50. As for the experimental part: In Vitro Enzymatic Cathepsin D (CatD) FRET Assay
Recombinant CatD was expressed in CHO cells. The assay buffer for CatD was 0.05 M citrate pH 3.5, 10% DMSO final, 5 mM CHAPS. The CatD enzyme (9 nM) was pre-incubated for one hour with inhibitors, typically in about 1 uL of DMSO according to a serial dilution, is added thereto. The assays was effectively started by the addition of different FRET substrates (20 nM for CatD) and the combination was incubated for one hour. The FRET assay was terminated with by addition of tris buffer, which raises the pH to neutrality, and the fluorescence was determined. The FRET substrate was a peptide with commercially available fluorophore and quencher, on opposite sides of the CatD cleavage site. The CatD substrate peptide sequence was based on sequence #1 of Table 1 from Gulnik et al., FEBS Lett. 413(2):379-384 (1997). Proteolytic cleavage of the FRET substrate released quenching of fluorescence (CatD excitation 500 nm and emission 580 nm).
The in vitro CatD FRET assay data for each of the Examples is provided in Table 2, conducted by the first procedure described above. […] Thus, with this surprising selectivity profile, the compounds provided herein are believed to minimize, reduce or completely eliminate any risk of retinal atrophy and abnormal development of the eye and of the retinal pigmented epithelium as it relates to the normal function and activity of CatD.

Experiment [1] addresses T1, BACE1 (Homo sapiens (Human), UniProt P56817). Description: In vitro enzymatic BACE1 FRET assay. The class given is biochemical. The settings on record: pH 4.5, read-out: BACE1 Enzyme IC50. As for the experimental part:
as §1, §2
Target sequence in this assay (P56817 46-501): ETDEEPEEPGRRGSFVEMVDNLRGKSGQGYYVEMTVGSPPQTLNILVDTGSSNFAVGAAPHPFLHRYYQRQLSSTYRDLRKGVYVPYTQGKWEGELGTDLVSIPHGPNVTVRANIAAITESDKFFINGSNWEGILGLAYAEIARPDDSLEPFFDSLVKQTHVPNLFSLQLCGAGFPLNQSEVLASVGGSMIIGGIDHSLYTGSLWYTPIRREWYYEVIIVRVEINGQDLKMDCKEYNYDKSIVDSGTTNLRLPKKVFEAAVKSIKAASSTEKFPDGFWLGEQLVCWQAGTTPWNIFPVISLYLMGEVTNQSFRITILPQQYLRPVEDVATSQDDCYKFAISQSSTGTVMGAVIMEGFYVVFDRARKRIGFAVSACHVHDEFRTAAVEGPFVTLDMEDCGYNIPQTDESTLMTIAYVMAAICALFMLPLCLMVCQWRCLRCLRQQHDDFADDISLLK

The target of experiment [2] is T1, BACE1. Description: In vitro BACE1 cell-based assay (Aβ40 in conditioned medium, HTRF). The settings on record: Aβ40 in conditioned medium of cells expressing APP, 24 h. As for the experimental part: In Vitro BACE1 Cell-Based Assay
The cell-based assay measures inhibition or reduction of Aβ40 in conditioned medium of test compound treated cells expressing amyloid precursor protein. Cells stably expressing Amyloid Precursor Protein (APP) were plated at a density of 45K cells/well in 384 well plates (Corning/BioCoat 354663). The test compounds were then added to cells in 22-point dose response concentrations with the starting concentration being 62.5 μM. The compounds were diluted from stock solutions in DMSO and the final DMSO concentration of the test compounds on cells was 0.625%. The cells were cultivated overnight at 37° C. and 5% CO2 in DMEM supplemented with 10% FBS. After 24 h of incubation with the test compounds, the conditioned media was collected and the Aβ40 levels were determined using HTRF (Homogeneous Time Resolved Fluorescence). The IC50 of the compound was calculated from the percent of control or percent inhibition of Aβ 40 as a function of the concentration of the test compound.
The HTRF to detect Aβ40 was performed in 384 well plates (Costar 3658). The antibody pair that were used to detect Aβ 40 from cell supernatants were ConfAb40 antibody (Amgen in-house) and biotinylated 6E10 (BIOLEGEND). As an alternative to ConfAb40, a commercially available antibody, Anti-beta Amyloid 1-40 antibody [BDI350] from Abcam, Cambridge, Mass. 02139-1517 (Product code: ab20068), may be used in this assay. The concentrations were 0.35 μg/mL of ConfAb40 antibody and 1.33 μg/mL of 6E10-biotinylated antibody, as well as 4.5 μg/mL of Streptavidin Allophycocyanin Conjugate (ThermoFisher Scientific) in HTRF Buffer ([…], 1% BSA, 0.5% Tween 20).
The conditioned media was incubated with above antibodies and Streptavidin Allophycocyanin Conjugate for 30-60 minutes at 23° C. The final readout was performed on Envision from PerkinElmer.
Target sequence in this assay (P56817 46-501, species assumed): as the sequence (P56817 46-501) above

For 13 molecules, IC50 results are on record in patent publication US10947223B2, “Substituted oxazines as beta-secretase inhibitors” (AMGEN INC., priority 2016, dated 2021).

Sequence of human recombinant BACE2 (Q9Y5Z0 63-518): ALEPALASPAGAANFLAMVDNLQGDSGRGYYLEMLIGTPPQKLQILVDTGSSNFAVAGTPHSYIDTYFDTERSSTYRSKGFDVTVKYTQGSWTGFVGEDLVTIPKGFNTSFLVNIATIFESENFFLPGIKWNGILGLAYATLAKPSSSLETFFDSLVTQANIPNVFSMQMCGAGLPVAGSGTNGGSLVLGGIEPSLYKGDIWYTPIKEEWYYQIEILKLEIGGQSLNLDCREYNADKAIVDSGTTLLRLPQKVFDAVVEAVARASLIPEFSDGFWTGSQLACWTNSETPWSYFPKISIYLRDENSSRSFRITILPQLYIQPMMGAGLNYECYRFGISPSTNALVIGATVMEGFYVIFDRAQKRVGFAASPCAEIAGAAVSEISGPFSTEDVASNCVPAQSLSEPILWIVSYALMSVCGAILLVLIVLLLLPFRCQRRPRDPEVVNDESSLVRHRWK
Sequence of Recombinant CatD (P07339 65-412): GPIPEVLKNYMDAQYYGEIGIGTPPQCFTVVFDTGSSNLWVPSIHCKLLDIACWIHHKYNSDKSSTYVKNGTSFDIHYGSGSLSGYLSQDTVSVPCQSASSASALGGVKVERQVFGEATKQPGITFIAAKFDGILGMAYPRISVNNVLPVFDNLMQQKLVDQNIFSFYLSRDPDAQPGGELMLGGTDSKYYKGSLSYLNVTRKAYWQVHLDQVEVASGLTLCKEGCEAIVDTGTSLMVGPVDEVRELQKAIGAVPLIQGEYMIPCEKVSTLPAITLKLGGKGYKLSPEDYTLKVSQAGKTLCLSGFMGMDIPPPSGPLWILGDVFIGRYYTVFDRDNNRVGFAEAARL

With `C#CCOc1cnc(/C(F)=C/c2ccc(F)c([C@@]3(C)N=C(N)OCC3(F)F)c2)cn1` [Example 115, (R,Z)-5,5-difluoro-4-(2-fluoro-5-(2-fluoro-2-(5-(prop-2-yn-1-yloxy)pyrazin-2-yl)vinyl)phenyl)-4-methyl-5,6-dihydro-4H-1,3-oxazin-2-amine], the IC50 on human recombinant BACE2 is 5.84 µM; on Recombinant CatD, 119 µM; at BACE1 [1] it was 0.283 µM; on BACE1 [2], 4.67 µM.
As for `C#CCOc1cnc(/C(F)=C/c2ccc(F)c([C@@]3(C)N=C(N)OC[C@@H]3OCC(F)(F)F)c2)cn1` [Example 111, (4R,5R)-4-(2-fluoro-5-((Z)-2-fluoro-2-(5-(prop-2-yn-1-yloxy)pyrazin-2-yl)vinyl)phenyl)-4-methyl-5-(2,2,2-trifluoroethoxy)-5,6-dihydro-4H-1,3-oxazin-2-amine], the half-inhibitory concentration (IC50) at human recombinant BACE2 came to 16 µM; on Recombinant CatD it was 664 µM; on BACE1 [1], 0.152 µM; at BACE1 [2] it was 0.059 µM.
In the case of `CC#CCOc1cnc(/C(F)=C/c2ccc(F)c([C@@]3(C)N=C(N)OC[C@@H]3OCC(F)(F)F)c2)cn1` [Example 113, (4R,5R)-4-(5-((Z)-2-(5-(but-2-yn-1-yloxy)pyrazin-2-yl)-2-fluorovinyl)-2-fluorophenyl)-4-methyl-5-(2,2,2-trifluoroethoxy)-5,6-dihydro-4H-1,3-oxazin-2-amine], the half-inhibitory concentration (IC50) is 17.1 µM at human recombinant BACE2, 233 µM on Recombinant CatD, 0.052 µM on BACE1 [1] and 0.048 µM against BACE1 [2].
Consider `C[C@@]1(c2cc(/C=C(\F)c3cnc(C#N)cn3)ccc2F)CO[C@@](C)(C(F)(F)F)C(N)=N1` [Example 105, 5-((Z)-2-(3-((3R,6R)-5-amino-3,6-dimethyl-6-(trifluoromethyl)-3,6-dihydro-2H-1,4-oxazin-3-yl)-4-fluorophenyl)-1-fluorovinyl)pyrazine-2-carbonitrile], for which the 50% inhibitory concentration (IC50) came to 0.273 µM at human recombinant BACE2, 415 µM at Recombinant CatD, 0.046 µM on BACE1 [1] and 0.13 µM against BACE1 [2].
Turning to `C[C@@]1(c2nc(/C=C(\F)c3ccc(C#N)cn3)ccc2F)CO[C@@](C)(C(F)(F)F)C(N)=N1` [Example 117, 6-((Z)-2-(6-((3R,6R)-5-amino-3,6-dimethyl-6-(trifluoromethyl)-3,6-dihydro-2H-1,4-oxazin-3-yl)-5-fluoropyridin-2-yl)-1-fluorovinyl)nicotinonitrile], the concentration for half-maximal inhibition (IC50) on human recombinant BACE2 worked out at 0.853 µM; on Recombinant CatD, 121 µM; at BACE1 [1], 0.149 µM; against BACE1 [2], 0.09 µM.
Consider `C#CCOc1cnc(/C(F)=C/c2ccc(F)c([C@]3(C)CO[C@@](C)(C(F)(F)F)C(N)=N3)c2)cn1` [Example 107, (2R,5R)-5-(2-fluoro-5-((Z)-2-fluoro-2-(5-(prop-2-yn-1-yloxy)pyrazin-2-yl)vinyl)phenyl)-2,5-dimethyl-2-(trifluoromethyl)-5,6-dihydro-2H-1,4-oxazin-3-amine], for which the IC50 at human recombinant BACE2 was 0.375 µM; at Recombinant CatD it was 82.5 µM; on BACE1 [1], 0.05 µM; on BACE1 [2], 0.112 µM.
The like results for `NC1=N[C@@](c2cc(/C=C(\F)c3ccc(Cl)cn3)ccc2F)(C(F)F)[C@H]2C[C@H]2O1` [Example 101, (1R,5S,6R)-5-(5-((Z)-2-(5-chloropyridin-2-yl)-2-fluorovinyl)-2-fluorophenyl)-5-(difluoromethyl)-2-oxa-4-azabicyclo[4.1.0]hept-3-en-3-amine] were, in that order, 0.421 µM, 215 µM, 0.954 µM and 1.12 µM.
Turning to `C[C@]1(c2cc(/C=C(\F)c3cnc(C#N)cn3)ccc2F)N=C(N)OC[C@@H]1OCC(F)(F)F` [Example 112, 5-((Z)-2-(3-((4R,5R)-2-amino-4-methyl-5-(2,2,2-trifluoroethoxy)-5,6-dihydro-4H-1,3-oxazin-4-yl)-4-fluorophenyl)-1-fluorovinyl)pyrazine-2-carbonitrile], the IC50 at human recombinant BACE2 stood at 6.36 µM; on Recombinant CatD, 970 µM; at BACE1 [1] it was 0.119 µM; against BACE1 [2], 0.027 µM.
On to `N#Cc1ccc(/C(F)=C/c2ccc(F)c([C@@]3(C(F)F)N=C(N)O[C@@H]4C[C@@H]43)c2)nc1` [Example 102, 6-((Z)-2-(3-((1R,5S,6R)-3-amino-5-(difluoromethyl)-2-oxa-4-azabicyclo[4.1.0]hept-3-en-5-yl)-4-fluorophenyl)-1-fluorovinyl)nicotinonitrile], for which the 50% inhibitory concentration (IC50) on human recombinant BACE2 came out at 1.62 µM; at Recombinant CatD it was 222 µM; on BACE1 [1], 0.152 µM; against BACE1 [2] it was 0.344 µM.
The like results for `C[C@]1(c2cc(/C=C(\F)c3ccc(C#N)cn3)ccc2F)N=C(N)OCC1(F)F` [Example 114, (R,Z)-6-(2-(3-(2-amino-5,5-difluoro-4-methyl-5,6-dihydro-4H-1,3-oxazin-4-yl)-4-fluorophenyl)-1-fluorovinyl)nicotinonitrile] were, in that order, 2.73 µM, greater than 400 µM, 0.256 µM and 2.66 µM.
Regarding `C[C@@]1(c2cc(/C=C(\F)c3cnc(Cl)cn3)ccc2F)CO[C@@](C)(C(F)(F)F)C(N)=N1` [Example 108, (2R,5R)-5-(5-((Z)-2-(5-chloropyrazin-2-yl)-2-fluorovinyl)-2-fluorophenyl)-2,5-dimethyl-2-(trifluoromethyl)-5,6-dihydro-2H-1,4-oxazin-3-amine], the IC50 on human recombinant BACE2 came out at 0.033 µM; at Recombinant CatD, 39.3 µM; at BACE1 [1], 0.118 µM; at BACE1 [2] it was 0.663 µM.
Take `C[C@]1(c2cc(/C=C(\F)c3ccc(C#N)cn3)ccc2F)N=C(N)OC[C@@H]1OCC(F)(F)F` [Example 109, 6-((Z)-2-(3-((4R,5R)-2-amino-4-methyl-5-(2,2,2-trifluoroethoxy)-5,6-dihydro-4H-1,3-oxazin-4-yl)-4-fluorophenyl)-1-fluorovinyl)nicotinonitrile]: the IC50 at human recombinant BACE2 stood at 3.87 µM; on Recombinant CatD it was 1190 µM; on BACE1 [1], 0.125 µM; on BACE1 [2] it was 0.014 µM.
In the case of `C[C@]1(c2nc(/C=C(\F)c3ccc(C#N)cn3)ccc2F)N=C(N)OCC1(F)F` [Example 116, (R,Z)-6-(2-(6-(2-amino-5,5-difluoro-4-methyl-5,6-dihydro-4H-1,3-oxazin-4-yl)-5-fluoropyridin-2-yl)-1-fluorovinyl)nicotinonitrile], the IC50 at human recombinant BACE2 is 11.4 µM; at Recombinant CatD, greater than 400 µM; on BACE1 [1], 1.05 µM; against BACE1 [2], 0.676 µM.

As a reminder, the IC50 is the concentration at which inhibition is half-maximal.
